According to US9546152B2 (MERCK SHARP & DOHME CORP., priority 2012, dated 2017):

Tests used:
[1] = target: T1, human orexin-2 receptor (Homo sapiens (Human), UniProt O43614); assay: radioligand binding assay, orexin-2 receptor; conditions: membranes prepared from CHO cells expressing the OX2 receptor; read-out: hOX2R BIND hKi
Description: (§1) In a typical experiment the OX1 and OX2 receptor antagonistic activity of the compounds of the present invention was determined in accordance with the following experimental method. For intracellular calcium measurements, Chinese hamster ovary (CHO) cells expressing the rat orexin-1 receptor or the human orexin-2 receptor, are grown in Iscove's modified DMEM containing 2 mM L-glutamine, […], 1% hypoxanthine-thymidine supplement, 100 U/ml penicillin, 100 μg/ml streptomycin and 10% heat-inactivated fetal calf serum (FCS). The cells are seeded at 20,000 cells/well into Becton-Dickinson black 384-well clear bottom sterile plates coated with poly-D-lysine. All reagents were from GIBCO-Invitrogen Corp. The seeded plates are incubated overnight at 37° C. and 5% CO2. Ala-6,12 human orexin-A as the agonist is prepared as a 1 mM stock solution in 1% bovine serum albumin (BSA) and diluted in assay buffer (HBSS containing 20 mM HEPES, 0.1% BSA and 2.5 mM probenecid, pH7.4) for use in the assay at a final concentration of 70 pM. Test compounds are prepared as 10 mM stock solution in DMSO, then diluted in 384-well plates, first in DMSO, then assay buffer. On the day of the assay, cells are washed 3 times with 100 μl assay buffer and then incubated for 60 min (37° C., 5% CO2) in 60 μl assay buffer containing 1 μM Fluo-4AM ester, 0.02% pluronic acid, and 1% BSA. The dye loading solution is then aspirated and cells are washed 3 times with 100 μl assay buffer. 30 μl of that same buffer is left in each well. Within the Fluorescent Imaging Plate Reader (FLIPR, Molecular Devices), test compounds are added to the plate in a volume of 25 μl, incubated for 5 min and finally 25 μl of agonist is added. Fluorescence is measured for each well at 1 second intervals for 5 minutes and the height of each fluorescence peak is compared to the height of the fluorescence peak induced by 70 pM Ala-6,12 orexin-A with buffer in place of antagonist. […] Alternatively, compound potency can be assessed by a radioligand binding assay (described in Bergman et. al. Bioorg. Med. Chem. Lett. 2008, 18, 1425-1430) in which the inhibition constant (Ki) is determined in membranes prepared from CHO cells expressing either the OX1 or OX2 receptor. The intrinsic orexin receptor antagonist activity of a compound which may be used in the present invention may be determined by these assays.

[2] = target: T1, human orexin-2 receptor; assay: FLIPR Ca2+ Flux Assay, orexin-2 receptor; assay type: cell-based; conditions: CHO cells expressing the human orexin-2 receptor; agonist 70 pM Ala-6,12 human orexin-A; read-out: hOX2R FLIPR IC50
Description: as §1

T1 sequence (O43614 whole entry): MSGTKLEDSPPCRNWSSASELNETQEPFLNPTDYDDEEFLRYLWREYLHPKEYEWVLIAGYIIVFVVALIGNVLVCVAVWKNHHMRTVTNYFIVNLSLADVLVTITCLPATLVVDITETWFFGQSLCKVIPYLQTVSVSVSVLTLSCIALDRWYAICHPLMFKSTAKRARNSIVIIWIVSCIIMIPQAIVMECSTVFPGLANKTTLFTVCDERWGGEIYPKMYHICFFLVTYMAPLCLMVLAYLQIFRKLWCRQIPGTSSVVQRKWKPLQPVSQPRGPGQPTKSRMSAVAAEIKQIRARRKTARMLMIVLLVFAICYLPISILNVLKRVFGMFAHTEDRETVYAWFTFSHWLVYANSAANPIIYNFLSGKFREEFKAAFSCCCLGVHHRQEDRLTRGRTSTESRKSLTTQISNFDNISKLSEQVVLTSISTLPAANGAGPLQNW

Row | Compound | Ki [1] [nM] | IC50 [2] [nM]
1 | COc1ccc(C(=O)N2C[C@H](Oc3nccc(C#N)c3C)CC[C@H]2C)c(-n2nccn2)c1 [Example 7, 2-{[(3R,6R)-1-{[4-methoxy-2-(2H-1,2,3-triazol-2-yl)phenyl]carbonyl}-6-methylpiperidin-3-yl]oxy}-3-methylpyridine-4-carbonitrile] | 1.3 | 13
2 | COc1ccc(C(=O)N2C[C@H](Oc3nccc(C#N)c3C)CC[C@H]2C)c(C2CCC2)n1 [Example 66] | 1.4 | 77
3 | CSc1ccc(C(=O)N2C[C@H](Oc3nccc(C#N)c3C)CC[C@H]2C)c(-n2nccn2)n1 [Example 86, 3-methyl-2-{[(3R,6R)-6-methyl-1-{[6-(methylsulfanyl)-2-(2H-1,2,3-triazol-2-yl)pyridin-3-yl]carbonyl}-piperidin-3-yl]oxy}pyridine-4-carbonitrile] | 5.1 | 126
4 | Cc1c(C#N)ccnc1O[C@@H]1CC[C@@H](C)N(C(=O)c2ccc(Cl)cc2-n2nccn2)C1 [Example 4, 2-{[(3R,6R)-1-{[4-chloro-2-(2H-1,2,3-triazol-2-yl)phenyl]carbonyl}-6-methylpiperidin-3-yl]oxy}-3-methylpyridine-4-carbonitrile] | 0.4 | 12
5 | COc1c(C#N)ccnc1O[C@@H]1CC[C@@H](C)N(C(=O)c2ccc(F)cc2-n2nccn2)C1 [Example 98, 2-{[(3R,6R)-1-{[4-fluoro-2-(2H-1,2,3-triazol-2-yl)phenyl]carbonyl}-6-methylpiperidin-3-yl]oxy}-3-methoxypyridine-4-carbonitrile] | 0.3 | 19
6 | Cc1c(C#N)ccnc1O[C@@H]1CC[C@@H](C)N(C(=O)c2c(F)cccc2-c2nccs2)C1 [Example 18, 2-{[(3R,6R)-1-{[2-fluoro-6-(1,3-thiazol-2-yl)phenyl]carbonyl}-6-methylpiperidin-3-yl]oxy}-3-methylpyridine-4-carbonitrile] | 0.1 | 7
7 | COc1ccc(C(=O)N2C[C@H](Oc3nccc(C#N)c3C)CC[C@H]2C)c(OC)n1 [Example 73, 2-({(3R,6R)-1-[(2,6-dimethoxypyridin-3-yl)carbonyl]-6-methylpiperidin-3-yl}oxy)-3-methylpyridine-4-carbonitrile] | 32.7 | –
8 | Cc1c(C#N)ccnc1O[C@@H]1CC[C@@H](C)N(C(=O)c2ccccc2-c2cscn2)C1 [Example 33, 3-methyl-2-{[(3R,6R)-6-methyl-1-{[2-(1,3-thiazol-4-yl)phenyl]carbonyl}piperidin-3-yl]oxy}pyridine-4-carbonitrile] | 0.2 | 6
9 | Cc1c(C#N)ccnc1O[C@@H]1CC[C@@H](C)N(C(=O)c2cc(F)ccc2-n2nccn2)C1 [Example 69, 2-{[(3R,6R)-1-{[5-fluoro-2-(2H-1,2,3-triazol-2-yl)phenyl]carbonyl}-6-methylpiperidin-3-yl]oxy}-3-methylpyridine-4-carbonitrile] | 0.6 | 11
10 | Cc1c(C#N)ccnc1O[C@@H]1CC[C@@H](C)N(C(=O)c2nscc2-c2ccccc2)C1 [Example 50] | 2 | 22
11 | Cc1c(C#N)ccnc1O[C@@H]1CC[C@@H](C)N(C(=O)C2=C(c3ccccn3)CCC2)C1 [Example 63, 3-methyl-2-({(3R,6R)-6-methyl-1-[(2-pyridin-2-ylcyclopent-1-en-1-yl)carbonyl]piperidin-3-yl}oxy)pyridine-4-carbonitrile] | 4 | 59
12 | COc1ccc(C(=O)N2C[C@H](Oc3nccc(C#N)c3C)CC[C@H]2C)c(-c2ccncc2)n1 [Example 48, 2-({(3R,6R)-1-[(6-methoxy-2,4′-bipyridin-3-yl)carbonyl]-6-methylpiperidin-3-yl}oxy)-3-methylpyridine-4-carbonitrile] | 8.9 | 65
13 | CCc1c(C#N)ccnc1O[C@@H]1CC[C@@H](C)N(C(=O)c2ccccc2-n2nccn2)C1 [Example 93, 3-ethyl-2-{[(3R,6R)-6-methyl-1-{[2-(2H-1,2,3-triazol-2-yl)phenyl]carbonyl}piperidin-3-yl]oxy}pyridine-4-carbonitrile] | 0.1 | 8
14 | COc1cc(-n2nccn2)c(C(=O)N2C[C@H](Oc3nccc(C#N)c3C)CC[C@H]2C)cn1 [Example 85, 2-{[(3R,6R)-1-{[6-methoxy-4-(2H-1,2,3-triazol-2-yl)pyridin-3-yl]carbonyl}-6-methylpiperidin-3-yl]oxy}-3-methylpyridine-4-carbonitrile] | 43.2 | –
15 | Cc1c(C#N)ccnc1O[C@@H]1CC[C@@H](C)N(C(=O)c2ccccc2OC(F)(F)F)C1 [Example 62, 3-methyl-2-{[(3R,6R)-6-methyl-1-{[2-(trifluoromethoxy)phenyl]carbonyl}piperidin-3-yl]oxy}pyridine-4-carbonitrile] | 0.8 | 16
16 | Cc1c(C#N)ccnc1O[C@@H]1CC[C@@H](C)N(C(=O)c2sncc2-c2ccccc2)C1 [Example 20, 3-methyl-2-({(3R,6R)-6-methyl-1-[(4-phenylisothiazol-5-yl)carbonyl]piperidin-3-yl}oxy)pyridine-4-carbonitrile] | 15.2 | 89
17 | Cc1c(C#N)ccnc1O[C@@H]1CC[C@@H](C)N(C(=O)c2ccccc2-c2ncco2)C1 [Example 27, 3-methyl-2-{[(3R,6R)-6-methyl-1-{[2-(1,3-oxazol-2-yl)phenyl]carbonyl}piperidin-3-yl]oxy}pyridine-4-carbonitrile] | 0.3 | 17
18 | Cc1c(C#N)ccnc1O[C@@H]1CC[C@@H](C)N(C(=O)c2ccncc2-c2ccccc2)C1 [Example 23, 3-methyl-2-({(3R,6R)-6-methyl-1-[(3-phenylpyridin-4-yl)carbonyl]piperidin-3-yl}oxy)pyridine-4-carbonitrile] | 16.6 | 69
19 | Cc1c(C#N)ccnc1O[C@@H]1CC[C@@H](C)N(C(=O)c2nscc2-n2nccn2)C1 [Example 55, 3-methyl-2-{[(3R,6R)-6-methyl-1-{[4-(2H-1,2,3-triazol-2-yl)isothiazol-3-yl]carbonyl}piperidin-3-yl]oxy}pyridine-4-carbonitrile] | 7.4 | 81
20 | Cc1c(C#N)ccnc1O[C@@H]1CC[C@@H](C)N(C(=O)c2ccccc2OC(C)C)C1 [Example 21, 3-methyl-2-{[(3R,6R)-6-methyl-1-{[2-(1-methylethoxy)phenyl]carbonyl}piperidin-3-yl]oxy}pyridine-4-carbonitrile] | 0.6 | 8
21 | COc1ccc(C(=O)N2C[C@H](Oc3nccc(C#N)c3C)CC[C@H]2C)c(C2CC2)n1 [Example 5, 2-({(3R,6R)-1-[(2-cyclopropyl-6-methoxypyridin-3-yl)carbonyl]-6-methylpiperidin-3-yl}oxy)-3-methylpyridine-4-carbonitrile] | 1.7 | 32
22 | Cc1c(C#N)ccnc1O[C@@H]1CC[C@@H](C)N(C(=O)c2cccc(F)c2-n2nccn2)C1 [Example 12, 2-{[(3R,6R)-1-{[3-fluoro-2-(2H-1,2,3-triazol-2-yl)phenyl]carbonyl}-6-methylpiperidin-3-yl]oxy}-3-methylpyridine-4-carbonitrile] | 1 | 12
23 | Cc1c(C#N)ccnc1O[C@@H]1CC[C@@H](C)N(C(=O)c2ccccc2-c2nccs2)C1 [Example 44, 3-methyl-2-{[(3R,6R)-6-methyl-1-{[2-(1,3-thiazol-2-yl)phenyl]carbonyl}piperidin-3-yl]oxy}pyridine-4-carbonitrile] | 0.1 | 8
